{"source": "patent US20080025960A1", "about": "“Detergents with stabilized enzyme systems” (priority 2006, published 2008)", "key": {"glucose oxidase [1]": {"molecular_target": "T1, glucose oxidase (Aspergillus niger, UniProt P13006)", "T1 construct": "purchased Genencor OXYGO L-5000", "T1 sequence (P13006 17-605)": "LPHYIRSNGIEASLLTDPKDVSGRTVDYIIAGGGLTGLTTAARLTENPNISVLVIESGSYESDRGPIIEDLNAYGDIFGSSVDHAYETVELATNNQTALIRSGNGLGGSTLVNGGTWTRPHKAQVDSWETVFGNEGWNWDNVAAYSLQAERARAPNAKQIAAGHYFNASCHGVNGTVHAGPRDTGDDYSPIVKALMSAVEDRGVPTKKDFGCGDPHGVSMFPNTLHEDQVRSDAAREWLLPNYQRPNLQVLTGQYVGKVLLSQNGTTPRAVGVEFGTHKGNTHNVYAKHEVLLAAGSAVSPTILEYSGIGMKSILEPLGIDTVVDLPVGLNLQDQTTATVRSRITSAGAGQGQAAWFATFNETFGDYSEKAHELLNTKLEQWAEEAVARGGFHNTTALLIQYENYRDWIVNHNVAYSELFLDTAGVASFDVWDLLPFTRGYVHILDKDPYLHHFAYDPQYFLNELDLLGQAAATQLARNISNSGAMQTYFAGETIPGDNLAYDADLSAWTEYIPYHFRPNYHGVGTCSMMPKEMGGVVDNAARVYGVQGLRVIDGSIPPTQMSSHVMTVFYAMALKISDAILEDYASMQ", "experiment": "Premature hydrogen peroxide generation by glucose oxidase in control buffer or AATCC liquid detergent stock (as is) with glucose and inhibitor, dipsticks", "format": "biochemical", "settings": "2 M hydroxylamine; detergent containing 1 M glucose and 500 PPM glucose oxidase"}, "glucose oxidase [2]": {"molecular_target": "T1, glucose oxidase", "experiment": "Premature hydrogen peroxide generation by glucose oxidase in control buffer or AATCC liquid detergent stock (as is) with glucose and inhibitor, dipsticks", "format": "biochemical", "settings": "1 M inhibitor; same methods as Examples 1-4", "source_text": "In this Example, experiments conducted to assess the stabilization of glucose oxidase in the presence of its substrate (i.e., glucose) and an inhibitor (i.e., sodium hydrogen sulfite) is described. In these experiments, AATCC standard detergent (American Association of Textile Chemists and Colorists Heavy Duty Liquid detergent version 2003 without brightener; key components include linear alkane sulfonate, alcohol ethoxylate, propanediol, citric acid, fatty acid, castic soda and water; purchased from TestFabrics) was used.\nIn these experiments, 100 mM Tris pH 8.3, with 0.005% TWEEN®-100 surfactant used as a positive control. […] Three two-ml tubes were weighed with 0.990 g of AATCC detergent (lot # 01282004) and another three tubes with 0.990 g of control buffer. Then, 90 mg (500 mM) of glucose substrate were added to all of the tubes. Next, 100, 50, and 10 mM sodium hydrogen sulfite (MW 106.1) were added to each tube respectively, including the control buffer and AATCC detergent control. All of the tubes were placed on a rotary plate for an hour to allow good mixing and solubilization of glucose into the detergent. Then, 500 PPM (0.5 mg, 14.88 ul) glucose oxidase (OXYGO™ L-5000, 5379 U/ml; 33.6 mg/ml; Genencor) was added to six 2-ml tubes (three with glucose/bisulfite containing control buffers and three with glucose/bisulfite containing AATCC detergent). All of the tubes were then set on the rotary plate (60 rpm) at room temperature. Hydrogen peroxide production was measured using dipsticks (peroxidase/ABTS—Baker Testrips;Baker) at various times—t=0+minutes, 12 minutes, and 30 minutes. The tube containing 100 mM bisulfite with glucose, glucose oxidase in liquid detergent was further monitored for premature generation of hydrogen peroxide further over a period of time starting at 1 hr, 12 hr, 7 days, 12 days and up to 21 days.\nIn these experiments, 100 mM Tris pH 8.3, with 0.005% TWEEN®-100 surfactant was used as a positive control. […] Three two-ml tubes were weighed with 0.990 g of AATCC detergent (lot # 01282004) and another three tubes with 0.990 g of control buffer.\nThree two-ml tubes containing 0.990 g of AATCC detergent (lot # 01282004) and another three tubes with 0.990 g of control buffer were weighed. Then, 90 mg (500 mM) glucose substrate was added to each tube. Then, 100, 50, and 10 mM sodium metabisulfite were added to each tube respectively (i.e., both control buffer and AATCC detergent-containing tubes). All of the tubes were placed on a rotary plate for an hour to allow good mixing and solubilization of glucose into the detergent. Next, 500 PPM (0.5 mg, 14.88 ul) glucose oxidase (OXYGO™ L-5000, 5379 U/ml; 33.6 mg/ml; Genencor) was added to six 2-ml tubes (three with glucose/metabisulfite containing control buffers and three with glucose/metabisulfite containing AATCC detergent). All of the tubes were then set on the rotary plate (60 rpm) at room temperature. H2O2 production was measured using dipsticks (peroxidase/ABTS), as described in Examples 1 and 2, for t=0+ minutes, 12 minutes, and 30 minutes. The tube containing 100 mM bisulfite with glucose, glucose oxidase in liquid detergent was further monitored for premature generation of hydrogen peroxide further over a period of time starting at 1 hr, 12 hr, 7 days, 12 days and up to 21 days."}, "alcohol oxidase [3]": {"molecular_target": "T2, alcohol oxidase (Pichia angusta, UniProt P04841)", "T2 construct": "purchased Sigma", "T2 sequence (P04841 whole entry)": "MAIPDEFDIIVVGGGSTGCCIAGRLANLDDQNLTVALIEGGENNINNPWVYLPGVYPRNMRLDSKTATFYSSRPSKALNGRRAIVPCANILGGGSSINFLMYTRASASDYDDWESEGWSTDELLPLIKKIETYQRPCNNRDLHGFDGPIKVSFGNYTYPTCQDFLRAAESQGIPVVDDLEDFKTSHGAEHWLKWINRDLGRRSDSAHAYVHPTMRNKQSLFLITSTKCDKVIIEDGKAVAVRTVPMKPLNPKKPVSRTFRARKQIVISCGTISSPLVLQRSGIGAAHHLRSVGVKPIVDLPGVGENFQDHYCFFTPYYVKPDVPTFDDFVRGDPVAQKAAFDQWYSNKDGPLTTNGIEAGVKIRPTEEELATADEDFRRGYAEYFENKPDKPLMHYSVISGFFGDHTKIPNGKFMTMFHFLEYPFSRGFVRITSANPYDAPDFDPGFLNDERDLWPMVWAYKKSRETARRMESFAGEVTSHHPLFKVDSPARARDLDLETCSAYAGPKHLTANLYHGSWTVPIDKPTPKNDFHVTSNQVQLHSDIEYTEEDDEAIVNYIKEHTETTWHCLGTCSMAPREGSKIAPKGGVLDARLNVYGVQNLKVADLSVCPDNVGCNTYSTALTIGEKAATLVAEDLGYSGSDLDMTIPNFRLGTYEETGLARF", "experiment": "Hydrogen peroxide concentration in control buffer or AATCC liquid detergent stock (as is) with alcohol oxidase, ethanol and inhibitor", "format": "biochemical, Hansunela sp.", "settings": "for H2O2 PPM: as is, 1 M ethanol, 10U enzyme, 100 mM inhibitor", "description": "In these experiments, the stability of alcohol oxidase obtained from Hansunela sp., (100 U/ml. 22 U/mg, 13 mg total solid in vial, 7.7 U/mg solid; Sigma) in AATCC liquid detergent was tested. In these experiments, 10 U of the alcohol oxidase were used in liquid detergent stock for each experiment. For testing, 1M ethanol was mixed into the detergent (46 mg ethanol in 990 mg detergent). […] The experiments were conducted as described above in Examples 1 and 3."}, "alcohol oxidase [4]": {"molecular_target": "T2, alcohol oxidase", "experiment": "Hydrogen peroxide concentration in wash liquor with alcohol oxidase, ethanol and inhibitor", "format": "biochemical, Hansunela sp.", "settings": "2 mM ethanol, 0.02U enzyme, 0.2 mM inhibitor", "description": "The stability and activity of the alcohol oxidase enzyme (described in Example 5) in AATCC liquid detergent (Sigma, 100 U/ml. 22 U/mg, 13 mg total solid in vial, 7.7 U/mg solid) was tested upon dilution into wash liquor. In these experiments, 10 U of alcohol oxidase were used in liquid detergent stock for each experiment. In addition, 1M ethanol (substrate) was mixed in detergent (46 mg ethanol in 990 mg detergent). […] In these experiments, 10 ul of final detergent mix or control mix were added to 5 ml of wash liquor. The same methods as described in Examples 2 and 4 were used in these experiments."}, "choline oxidase [5]": {"molecular_target": "T3, choline oxidase (Arthrobacter globiformis, UniProt Q7X2H8)", "T3 sequence (Q7X2H8 1-546)": "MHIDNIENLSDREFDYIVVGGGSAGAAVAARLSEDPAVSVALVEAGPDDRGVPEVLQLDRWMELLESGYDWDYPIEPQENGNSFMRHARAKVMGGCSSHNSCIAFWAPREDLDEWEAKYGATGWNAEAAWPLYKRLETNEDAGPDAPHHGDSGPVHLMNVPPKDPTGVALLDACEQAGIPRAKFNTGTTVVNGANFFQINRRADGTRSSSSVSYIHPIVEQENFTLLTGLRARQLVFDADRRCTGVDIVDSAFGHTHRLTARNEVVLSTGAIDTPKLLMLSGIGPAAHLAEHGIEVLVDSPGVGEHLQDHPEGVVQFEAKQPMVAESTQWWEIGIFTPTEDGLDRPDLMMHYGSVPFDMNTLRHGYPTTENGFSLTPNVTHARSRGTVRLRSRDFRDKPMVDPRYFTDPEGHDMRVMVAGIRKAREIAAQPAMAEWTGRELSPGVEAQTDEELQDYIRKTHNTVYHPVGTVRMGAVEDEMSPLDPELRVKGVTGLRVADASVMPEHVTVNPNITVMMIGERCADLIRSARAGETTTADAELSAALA", "experiment": "H2O2 in control buffer or AATCC liquid detergent stock with choline oxidase, choline and inhibitor", "format": "biochemical", "settings": "for H2O2 PPM: 1 M choline", "description": "In this Example, experiments conducted to assess the stabilization of choline oxidase in the presence of its substrate (i.e., choline) and an inhibitor (i.e., sodium bisulfite and 2-amino,2-methyl,1-propanol) is described. In these experiments, AATCC standard detergent was used.\n(§1) The experiments were conducted as described in Example 1. Choline oxidase produces two moles of H2O2 per mole of choline. The results obtained in these experiments confirmed that choline oxidase was stable in AATCC detergent over 24 hour period tested in presence of choline and inhibitors. […] Upon dilution in wash liquor, detergent containing choline oxidase, choline chloride and an inhibitor (e.g., sodium hydrogen sulfite or 2-amino,2-methyl,1-propanol) produced H2O2 over time, as indicated in Table 5."}, "choline oxidase [6]": {"molecular_target": "T3, choline oxidase", "experiment": "H2O2 in wash liquor with choline oxidase, choline chloride and inhibitor", "format": "biochemical", "settings": "2 mM choline chloride, 0.02U enzyme, 0.4 mM AMP inhibitor", "description": "as §1"}}}
{"molecule": "NO", "note": "[hydroxylamine]", "values": [{"measurement": "stabilization of premature hydrogen peroxide generation", "setting": "glucose oxidase [1]", "value": "can stabilize premature hydrogen peroxide generation"}]}
{"molecule": "O=S(O)(O)=S", "note": "[sodium thiosulfate]", "values": [{"measurement": "glucose oxidase inhibition", "setting": "glucose oxidase [2]", "value": "small degree of glucose oxidase inhibition"}, {"measurement": "character of alcohol oxidase inhibition", "setting": "alcohol oxidase [3]; 100 mM concentration tested", "value": "week inhibitor"}, {"measurement": "H2O2 PPM", "setting": "alcohol oxidase [3]; AATCC Detergent, T = 0+", "value": 3, "unit": "PPM"}, {"measurement": "H2O2 PPM", "setting": "alcohol oxidase [3]; AATCC Detergent, T = 120 min", "value": "(>10--thiosulfate) PPM"}, {"measurement": "H2O2 PPM", "setting": "alcohol oxidase [3]; Control Buffer, T = 0+", "value": "˜10 PPM"}, {"measurement": "H2O2 PPM", "setting": "alcohol oxidase [3]; Control Buffer, T = 120 min", "value": 0, "unit": "PPM"}, {"measurement": "H2O2 PPM", "setting": "alcohol oxidase [4]; AATCC Detergent, T = 0+", "value": 0, "unit": "PPM"}, {"measurement": "H2O2 PPM", "setting": "alcohol oxidase [4]; AATCC Detergent, T = 30 min", "value": 0, "unit": "PPM"}, {"measurement": "H2O2 PPM", "setting": "alcohol oxidase [4]; AATCC Detergent, T = 120 min", "value": ">3 (thiosulfate) PPM"}, {"measurement": "H2O2 PPM", "setting": "alcohol oxidase [4]; Control Buffer, T = 0+", "value": 0, "unit": "PPM"}, {"measurement": "H2O2 PPM", "setting": "alcohol oxidase [4]; Control Buffer, T = 30 min", "value": 0, "unit": "PPM"}]}
{"molecule": "[F-].[Na+]", "note": "[sodium fluoride]", "values": [{"measurement": "glucose oxidase inhibition", "setting": "glucose oxidase [2]", "value": "small degree of glucose oxidase inhibition"}]}
{"molecule": "CC(C)(N)CO", "note": "[AMP, 2-amino,2-methyl,1-propanol]", "values": [{"measurement": "H2O2 PPM", "setting": "choline oxidase [5]; AATCC Detergent, T = 0+, 1U enzyme, 100 mM AMP inhibitor", "value": 0, "unit": "PPM"}, {"measurement": "H2O2 PPM", "setting": "choline oxidase [5]; AATCC Detergent, T = 12 min, 1U enzyme, 100 mM AMP inhibitor", "value": 1, "unit": "PPM"}, {"measurement": "H2O2 PPM", "setting": "choline oxidase [5]; AATCC Detergent, T = 12 min, 1U or 10U enzyme, 200 mM AMP (pH ~9.3)", "value": 0, "unit": "PPM"}, {"measurement": "premature regeneration of H2O2 in detergent", "setting": "choline oxidase [5]; AMP used at 200 mM", "value": "stops premature regeneration of H2O2"}, {"measurement": "H2O2 PPM", "setting": "choline oxidase [5]; Control Buffer, T = 0+, 1U enzyme, 100 mM AMP inhibitor", "value": 0, "unit": "PPM"}, {"measurement": "H2O2 PPM", "setting": "choline oxidase [5]; Control Buffer, T = 12 min, 1U enzyme, 100 mM AMP inhibitor", "value": 1, "unit": "PPM"}, {"measurement": "H2O2 PPM", "setting": "choline oxidase [5]; Control Buffer, T = 12 min, 1U or 10U enzyme, 200 mM AMP (pH ~9.3)", "value": 0, "unit": "PPM"}, {"measurement": "character of choline oxidase inhibition", "setting": "choline oxidase [5]; sodium hydrogen sulfite at 100 mM concentration tested", "value": "reversible inhibitor"}, {"measurement": "H2O2 PPM", "setting": "choline oxidase [6]; AATCC Detergent, T = 0+", "value": 1, "unit": "PPM"}, {"measurement": "H2O2 PPM", "setting": "choline oxidase [6]; AATCC Detergent, T = 12 min", "value": 3, "unit": "PPM"}, {"measurement": "H2O2 PPM", "setting": "choline oxidase [6]; AATCC Detergent, T = 30 min", "value": 3, "unit": "PPM"}, {"measurement": "H2O2 PPM", "setting": "choline oxidase [6]; AATCC Detergent, T = 60 min", "value": 10, "unit": "PPM"}, {"measurement": "H2O2 PPM", "setting": "choline oxidase [6]; Control Buffer, T = 0+", "value": 1, "unit": "PPM"}, {"measurement": "H2O2 PPM", "setting": "choline oxidase [6]; Control Buffer, T = 12 min", "value": 3, "unit": "PPM"}, {"measurement": "H2O2 PPM", "setting": "choline oxidase [6]; Control Buffer, T = 30 min", "value": 3, "unit": "PPM"}, {"measurement": "H2O2 PPM", "setting": "choline oxidase [6]; Control Buffer, T = 60 min", "value": 10, "unit": "PPM"}]}
